Source: patent US12115393B2, “Methods for setting parameters of a neurostimulation device and associated devices” (INSTITUT NATIONAL DE LA SANTE ET DE LA RECHERCHE MEDICALE …, priority 2019, dated 2024)

Columns and labels:
Assay type in all cases: in vivo
[1] = system: unpredictable chronic mild stress (UCMS) mouse model; experiment: open-field task in UCMS mice; settings: 15 mg/kg fluoxetine in drinking water from day 7, tested day 43, p<0.10
Description: (§1) From day 7 on, mice from the Veh (vehicle) and the Flx (fluoxetine) groups were chronically treated through drinking water respectively with water alone (n=12) or 15 mg/kg fluoxetine (n=12).
(§2) The main cohort of fifty-three mice followed the UCMS regimen from day 0 to day 35, as described previously. Briefly, mice were isolated in 24×11×12 cm cages without environmental enrichment and submitted to daily random socio-environmental stressors including: exposition to another mouse bedding, removal of sawdust, contention and light dark cycle perturbations.
Pharmacological treatments (15 mg/kg fluoxetine) were given from day 7 on to achieve chronic administration at week 5. […]
(§3) Behaviors were assessed during the dark phase of the light-dark cycle, i.e., the active, awoken phase for the animals. The effects of ultrasound neurostimulation were assessed against those of the fluoxetine treatment from day 38 to day 43 with 1) the nest-building test, 2) the reward-maze test and 3) the open field task.
3. […] The latency to reach the center area (d=10 cm) and the number of center-crossings were measured for up to 5 min. The movements of the mice were recorded and tracked with the software EthoVision XT (Noldus Information Technology, Netherlands) to generate individual heat maps, color-coded for position frequencies over the duration of the test.

[2] = system: unpredictable chronic mild stress (UCMS) mouse model; experiment: reward-maze test in UCMS mice
Description: as §1, §2
(§4) Pharmacological treatments (15 mg/kg fluoxetine) were given from day 7 on to achieve chronic administration at week 5. The chronic ultrasound neurostimulation treatment was given during the fifth week of the UCMS (stressors: 08:00-12:00 AM, treatment: 02:00 PM). […]
as §3
2. […] The latency to reach the reward and its consumption were measured for up to 5 min.

[3] = system: unpredictable chronic mild stress (UCMS) mouse model; experiment: nest-building test in UCMS mice; settings: 15 mg/kg fluoxetine chronically through drinking water from day 7, tested day 38, score max. 5
Description: as §1, §2, §4, §3
1. […] After 5 hours in standard condition, the state of the nest, built in cotton, was scored on a predefined scale. […]

CNCCC(Oc1ccc(C(F)(F)F)cc1)c1ccccc1 (stereo not shown) [fluoxetine]
number of center-crossings [1]: did not significantly affect
consumption of the reward ([2]; 15 mg/kg fluoxetine in drinking water from day 7, tested day 40, Veh vs Flx p=0.033): modified
latency to travel across the apparatus and reach the food reward ([2]; 15 mg/kg fluoxetine in drinking water from day 7, tested day 40, Veh vs Flx p=0.042): decreased three-fold
nest-building score (ability to build a nest within 5 hours) [3]: no effect
